In patent US12054466B2, “Compounds for the treatment of clostridium difficile infection” (University of Notre Dame du Lac, priority 2016, dated 2024):
Converted amounts (≈) assume the structure as drawn. “Also recorded” adds a separate entry of the source. Read-outs that look alike come from different tables or passages of the source.

Tests used:
C. difficile [1] = test: MIC against C. difficile (strain not named; 14 strains overall); type: cell-based, Clostridium difficile
C. difficile ATCC43598 = test: MIC, broth microdilution; type: cell-based; conditions: Clostridioides difficile
C. difficile ATCC43255 = test: MIC, broth microdilution; type: cell-based; conditions: Clostridioides difficile
C. difficile BAA-1804 = test: MIC, broth microdilution; type: cell-based; conditions: Clostridioides difficile
C. difficile BAA-1803 = test: MIC, broth microdilution; type: cell-based; conditions: Clostridioides difficile
C. difficile BAA-1801 = test: MIC, broth microdilution; type: cell-based; conditions: Clostridioides difficile
C. difficile BAA-1812 = test: MIC, broth microdilution; type: cell-based; conditions: Clostridioides difficile
C. difficile BAA-1814 = test: MIC, broth microdilution; type: cell-based; conditions: Clostridioides difficile
C. difficile NR49294 = test: MIC, broth microdilution; type: cell-based; conditions: Clostridioides difficile
C. difficile NR49318 = test: MIC, broth microdilution; type: cell-based; conditions: Clostridioides difficile
C. difficile NR49292 = test: MIC, broth microdilution; type: cell-based; conditions: Clostridioides difficile
[2] = system: Bacteroides fragilis HM-709; test: MIC against common gut bacteria; type: cell-based; conditions: Bacteroides fragilis, HM709
Bacteroides fragilis = test: MIC against common gut bacteria; type: cell-based
Bacteroides ovatus = test: MIC against common gut bacteria; type: cell-based
Bacteroides vulgatus = test: MIC against common gut bacteria; type: cell-based; conditions: Phocaeicola vulgatus
Bacteroides eggerthii = test: MIC against common gut bacteria; type: cell-based
Bacteroides caccae = test: MIC against common gut bacteria; type: cell-based
[3] = system: Bifidobacterium longum HM-846; test: MIC against common gut bacteria; type: cell-based; conditions: Bifidobacterium longum, HM846
[4] = system: Corynebacterium sp. HM-784; test: MIC against common gut bacteria; type: cell-based; conditions: Corynebacterium, SP.HM784
Protocol: Minimally-inhibitory concentrations. MICs for C. difficile strains and the common gut bacteria were determined using broth microdilution techniques as reported earlier using brucella broth supplemented with hemin and vitamin K or supplemented BHIS broth (Babakhani et al., J Antimicrob Chemother 2013, 68(3), 515). Lactobacillus MRS broth was used for lactobacillus strains. […] All incubations unless specified otherwise were carried out at 24 or 48 h at 37° C. in an anaerobic chamber (Whitley DG250 workstation, Microbiology International, Frederick, MD). Corynebacterium and lactobacillus species were incubated aerobically.

[5] = system: Fusobacterium nucleatum HM-992; test: MIC against common gut bacteria; type: cell-based; conditions: Fusobacterium nucleatum, HM992
[6] = system: Lactobacillus reuteri HM-102; test: MIC against common gut bacteria; type: cell-based; conditions: Limosilactobacillus reuteri, HM102
[7] = system: Lactobacillus gasseri HM-644; test: MIC against common gut bacteria; type: cell-based; conditions: Lactobacillus gasseri, HM644
Veillonella sp. HM-49 = test: MIC against common gut bacteria; type: cell-based; conditions: Veillonella, SP.HM49
[8] = system: C. difficile strain ATCC 43255; test: Mouse model of recurrent CDI, second study: fecal cell, spore and toxin evaluation; type: in vivo, mice
Protocol: C. difficile Mouse Model. […] A negative vehicle control will be included. […] This study was conducted in duplicates.
A second study was conducted with oxadiazole 2 given po at 20 or 40 mg/kg for 5 days and vancomycin administered at 50 mg/kg po for 5 days. Fecal samples were collected on days 3, 7, and 10 for C. difficile spore and toxin evaluation.

C. difficile infection = conditions: patients treated for CDI; cited from earlier work
C. difficile [9] = conditions: cited from earlier work
[10] = system: C. difficile strain ATCC 43255; test: Mouse model of recurrent CDI, survival; conditions: po once a day for 5 days; oxadiazole 2 20 mg/kg/day, vancomycin 50 mg/kg/day

SMILES: CN[C@H](CC(C)C)C(=O)N[C@H]1C(=O)N[C@@H](CC(N)=O)C(=O)N[C@H]2C(=O)N[C@H]3C(=O)N[C@H](C(=O)N[C@H](C(=O)O)c4cc(O)cc(O)c4-c4cc3ccc4O)[C@H](O)c3ccc(c(Cl)c3)Oc3cc2cc(c3O[C@@H]2O[C@H](CO)[C@@H](O)[C@H](O)[C@H]2O[C@H]2C[C@](C)(N)[C@H](O)[C@H](C)O2)Oc2ccc(cc2Cl)[C@H]1O [vancomycin]
- MIC range in 14 C. difficile strains (C. difficile [1]): 0.25 to 1 µg/mL
- MIC (C. difficile ATCC43598; ATCC43598, 24 h, read-out: MIC at 24 h): 1 µg/mL (≈ 0.69 µM)
- MIC (C. difficile ATCC43598; ATCC43598, 48 h, read-out: MIC at 48 h): 1 µg/mL (≈ 0.69 µM)
- MIC (C. difficile ATCC43255; ATCC43255, 24 h, read-out: MIC at 24 h): 0.5 µg/mL (≈ 0.345 µM)
- MIC (C. difficile ATCC43255; ATCC43255, 48 h, read-out: MIC at 48 h): 0.5 µg/mL (≈ 0.345 µM)
- MIC (C. difficile BAA-1804; BAA1804, 24 h, read-out: MIC at 24 h): 1 µg/mL (≈ 0.69 µM)
- MIC (C. difficile BAA-1804; BAA1804, 48 h, read-out: MIC at 48 h): 1 µg/mL (≈ 0.69 µM)
- MIC (C. difficile BAA-1803; BAA1803, 24 h, read-out: MIC at 24 h): 1 µg/mL (≈ 0.69 µM)
- MIC (C. difficile BAA-1803; BAA1803, 48 h, read-out: MIC at 48 h): 2 µg/mL (≈ 1.38 µM)
- MIC (C. difficile BAA-1801; BAA1801, 24 h, read-out: MIC at 24 h): 0.25 µg/mL (≈ 0.173 µM)
- MIC (C. difficile BAA-1801; BAA1801, 48 h, read-out: MIC at 48 h): 0.25 µg/mL (≈ 0.173 µM)
- MIC (C. difficile BAA-1812; BAA1812, 24 h, read-out: MIC at 24 h): 0.25 µg/mL (≈ 0.173 µM)
- MIC (C. difficile BAA-1812; BAA1812, 48 h, read-out: MIC at 48 h): 0.5 µg/mL (≈ 0.345 µM)
- MIC (C. difficile BAA-1814; BAA1814, 24 h, read-out: MIC at 24 h): 0.5 µg/mL (≈ 0.345 µM)
- MIC (C. difficile BAA-1814; BAA1814, 48 h, read-out: MIC at 48 h): 0.5 µg/mL (≈ 0.345 µM)
- MIC (C. difficile NR49294; NR49294, 24 h, read-out: MIC at 24 h): 0.25 µg/mL (≈ 0.173 µM)
- MIC (C. difficile NR49294; NR49294, 48 h, read-out: MIC at 48 h): 0.25 µg/mL (≈ 0.173 µM)
- MIC (C. difficile NR49318; NR49318, 24 h, read-out: MIC at 24 h): 0.25 µg/mL (≈ 0.173 µM)
- MIC (C. difficile NR49318; NR49318, 48 h, read-out: MIC at 48 h): 0.25 µg/mL (≈ 0.173 µM)
- MIC (C. difficile NR49292; NR49292, 24 h, read-out: MIC at 24 h): 0.25 µg/mL (≈ 0.173 µM)
- MIC (C. difficile NR49292; NR49292, 48 h, read-out: MIC at 48 h): 0.25 µg/mL (≈ 0.173 µM)
- MIC [2]: 16 µg/mL (≈ 11 µM)
- MIC (Bacteroides fragilis): 16 µg/mL (≈ 11 µM)
- MIC (Bacteroides ovatus): 16 µg/mL (≈ 11 µM)
- MIC (Bacteroides vulgatus): 16 µg/mL (≈ 11 µM)
- MIC (Bacteroides eggerthii): 8 µg/mL (≈ 5.52 µM)
- MIC (Bacteroides caccae): 32 µg/mL (≈ 22.1 µM)
- MIC [3]: 0.25 µg/mL (≈ 0.173 µM)
- MIC [4]: 0.25 µg/mL (≈ 0.173 µM)
- MIC [5]: 0.25 µg/mL (≈ 0.173 µM)
- MIC [6]: > 32 µg/mL
- MIC [7]: 1 µg/mL (≈ 0.69 µM)
- MIC (Veillonella sp. HM-49): > 32 µg/mL
- Spores in feces ([8]; 50 mg/kg vancomycin, in words): spores were observed on day 10; also recorded: no spores were observed until day 10
- Reduction in vegetative cells in feces by day 10 ([8]; dose of compound 2 not stated): 2 log
- Total cell counts in feces, reduction on day 10 compared to day 3 ([8]; vancomycin 50 mg/kg po for 5 days): 1.02 log
- Toxin in feces ([8]; vancomycin group, day 10, in words): toxin was observed
- Patients with recurrence of the infection (C. difficile infection): About 25%
- Activity against C. difficile spores (C. difficile [9]; at 8× or 80× MIC): not active
- Inhibition of toxin production (C. difficile [9]; at 8×MIC): Neither vancomycin nor metronidazole inhibit toxin production
- Survival after 25 days [10]: 45%
